What was measured:
[1] = molecular target: T1, Dihydroorotate dehydrogenase (quinone), mitochondrial (Homo sapiens, UniProt Q02127); assay: Inhibition of human DHODH at 10 uM using dihydroorotate substrate by DCIP assay relative to control
[2] = molecular target: T1, Dihydroorotate dehydrogenase (quinone), mitochondrial; assay: Inhibition of human DHODH using dihydroorotate substrate by DCIP assay

T1 sequence (Q02127 whole entry): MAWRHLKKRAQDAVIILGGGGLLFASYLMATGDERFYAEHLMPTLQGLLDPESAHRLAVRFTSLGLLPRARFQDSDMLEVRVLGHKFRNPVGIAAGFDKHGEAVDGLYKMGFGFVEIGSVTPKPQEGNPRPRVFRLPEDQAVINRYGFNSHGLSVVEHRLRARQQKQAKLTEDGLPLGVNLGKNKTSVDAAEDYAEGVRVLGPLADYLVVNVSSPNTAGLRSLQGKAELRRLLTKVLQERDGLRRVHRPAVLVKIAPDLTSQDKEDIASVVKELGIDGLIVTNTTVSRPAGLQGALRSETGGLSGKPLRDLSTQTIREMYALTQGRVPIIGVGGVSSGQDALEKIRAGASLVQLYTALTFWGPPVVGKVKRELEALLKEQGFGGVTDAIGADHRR

| Structure (SMILES) | inhibition [1] [%] | IC50 [2] [µM] |
| --- | --- | --- |
| CC(C)(C)OC(=O)/C(C#N)=C1\SCC(=O)N1c1ccccc1F | 33.9 | > 10 |
| CCOC(=O)/C(C#N)=C1\SCC(=O)N1c1ccccc1F | 38.2 | > 10 |
| COC(=O)/C(C#N)=C1\SCC(=O)N1c1ccccc1I | 18.4 | > 10 |
| N#C/C(C(=O)O)=C1/SCC(=O)N1c1ccccc1F | 14.9 | > 10 |
| CCCCOC(=O)/C(C#N)=C1\SCC(=O)N1c1ccccc1F | 28.8 | > 10 |
| COC(=O)/C(C#N)=C1\SCC(=O)N1c1cccc2ccccc12 | 21.9 | > 10 |
| CCOC(=O)C(C(=O)OCC)=C1SCC(=O)N1c1ccccc1F | 8.71 | > 10 |
| COC(=O)C(C(=O)OC)=C1SCC(=O)N1c1ccccc1F | 4.27 | > 10 |
| CCCOC(=O)/C(C#N)=C1\SCC(=O)N1c1ccccc1F | 33.5 | > 10 |
| COC(=O)/C(C#N)=C1\SCC(=O)N1c1ccc(OC)cc1F | 40.4 | > 10 |
| COC(=O)/C(C#N)=C1\SCCC(=O)N1c1ccccc1F | 15.7 | > 10 |
| COC(=O)/C(C#N)=C1\SCCN1c1ccccc1F | 11.1 | > 10 |
| N#C/C(C(N)=O)=C1/SCC(=O)N1c1ccccc1F | 11.8 | > 10 |
| COC(=O)/C(C#N)=C1\SCC(=O)N1c1cccc(Cl)n1 | 43.7 | > 10 |

Continued, values first:

| inhibition [1] [%] | IC50 [2] [µM] | Structure (SMILES) |
| --- | --- | --- |
| 80.3 |  | COC(=O)/C(C#N)=C1\SCC(=O)N1c1ccc2ccccc2c1 |
| 62.9 | 4.41 | COC(=O)/C(C#N)=C1\SCC(=O)N1c1ccc([N+](=O)[O-])cc1 |
| 40 | > 10 | COC(=O)/C(C#N)=C1\SCC(=O)N1c1ccccc1Cl |
| 69 | 2.68 | COC(=O)/C(C#N)=C1\SCC(=O)N1c1ccc(Br)cc1 |
| 15.1 | > 10 | COC(=O)/C(C#N)=C1\SCC(=O)N1c1ccc(C(=O)O)cc1 |
| 45.4 | > 10 | COC(=O)/C(C#N)=C1\SCC(=O)N1c1ccnc(Cl)c1 |
| 56.9 | 8.51 | COC(=O)/C(C#N)=C1\SCC(=O)N1c1cccc(Cl)c1 |
| 49.4 | 10.6 | COC(=O)/C(C#N)=C1\SCC(=O)N1c1ccc(F)cc1 |
| 34.1 | > 10 | COC(=O)/C(C#N)=C1\SCC(=O)N1c1cccc(F)c1 |
| 74.4 | 3.03 | COC(=O)/C(C#N)=C1\SCC(=O)N1c1ccc(C(F)(F)F)cc1 |
| 79.1 |  | COC(=O)/C(C#N)=C1\SCC(=O)N1c1ccc(C(C)(C)C)cc1 |
| 34.9 | > 10 | COC(=O)/C(C#N)=C1\SCC(=O)N1c1ccccc1F |
| 25.6 | > 10 | O=C1CSC(=S)N1c1ccc(C(F)(F)F)cc1 |
| 52.5 | 9.45 | COC(=O)/C(C#N)=C1\SCC(=O)N1c1ccc(OC)cc1 |

Source: ChEMBL document CHEMBL4261511, “Synthesis, structure-activity relationship and binding mode analysis of 4-thiazolidinone derivatives as novel inhibitors of human dihydroorotate dehydrogenase” (Medchemcomm, 2017)
